Values of other authors in patent publication US11278511B2, “Sports health performance composition” (REV Pharmaceuticals, Inc., priority 2016, dated 2022).
Like-named read-outs stand apart in the source and are kept apart here.

Columns and labels:
[1] = test system: urinary cGMP and nitrate excretion
[2] = test system: humans
[3] = IV infusion or oral, doses 6 to 30 gm, humans

Q: With `N=C(N)NCCC[C@H](N)C(=O)O` [L-arginine] as the molecule, how does the “urinary cGMP excretion” value ([1]; 6 gm IV) read?
A: significant increases

Q: What about the urinary nitrate excretion ([1]; 6 gm IV) of the same molecule?
A: significant increases

Q: And the “urinary cGMP excretion” value ([1]; 30 gm IV)?
A: significant increases

Q: And the urinary nitrate excretion ([1]; 30 gm IV)?
A: significant increases

Q: And the Cmax (6 gm IV)?
A: 822 µM

Q: What about the Cmax (6 gm oral) of the same molecule?
A: 310 µM

Q: And the Cmax (30 gm IV)?
A: 6220 µM

Q: What about the Half life (IV) of the same molecule?
A: 1 h

Q: What about the Half life (PO) of the same molecule?
A: 1.5 h

Q: What about the changes in hemodynamics ([2]; 6 gm doses) of the same molecule?
A: No significant changes

Q: And the blood pressure ([2]; 30 gm IV)?
A: significantly decreased

Q: And the total peripheral resistance ([2]; 30 gm IV)?
A: significantly decreased

Q: What about the endothelium-dependent vasodilation [2, 3] of the same molecule?
A: improved endothelium-dependent vasodilation

Q: And the muscle blood flow [2, 3]?
A: improved muscle blood flow

Q: What about the peripheral vasodilation [2, 3] of the same molecule?
A: induced peripheral vasodilation
